# From publication PMC13672995, “NCR13 peptide protects soybean against Cercospora sojina using multi-faceted modes of action and additive interaction with chemical fungicides” (Journal of Experimental Botany, 2025)
# Where no end group is shown, it is not given here.
# Assays:
# [1] = Heme-peptide binding assay (colour change); conditions: equimolar heme and peptide, 100 µM, 1 h, room temperature
# Protocol: Heme solutions were freshly prepared by dissolving hemin chloride (Sigma Cat No: 3741) in 0.1 M NaOH and used within an hour after preparation. Two heme-sequestering peptides, NCR247 and NCR455 ([Montiel et al., 2017]; [Sankari et al., 2022]), were used as positive controls, and water-only treatment as a negative control. The equimolar concentration of heme and peptide (100 µM) or water were mixed and incubated at room temperature for 1 h. When dissolved in NaOH, heme is light to dark brown in color; however, when it binds to a peptide, the color changes to reddish-brown as described by [Sankari et al. (2022)]. The change in color of heme to reddish-brown indicated the heme binding ability of the peptide.
# [2] = tested on: fungicide-sensitive and -resistant isolates of C. sojina; experiment: In vitro antifungal activity assay (MIC stated across isolates); format: cell-based, Cercospora sojina; conditions: range over Cs320 and Cs350; 48 h
# Protocol: (§1) In vitro antifungal activity of AFPs and QoI fungicides was determined using 96-well plate assays as described ([Velivelli et al., 2020]) with slight modifications. Briefly, 2- to 3-week-old C. sojina was used to make a conidial suspension in 2× SFM at the final concentration of ∼10^5 conidia ml^−1. Simultaneously, peptide dilutions (in water) at various concentrations were made. Fungicides were dissolved in 50% acetone and 50% water to make a stock solution of 500 µM, and serial dilutions were made in water as needed. The peptide–conidia or the fungicide–conidia mixture at the ratio of 1:1 (45 µl:45 µl) was added in a 96-well plate and incubated at room temperature for 48 h, after which MICs of the peptides/fungicides were calculated based on microscopy as well as the resazurin cell viability assay ([Velivelli et al., 2020]).
# [3] = tested on: C. sojina Cs350 (fungicide resistant); experiment: Peptide-fungicide checkerboard assay; format: cell-based, Cercospora sojina; conditions: pair azoxystrobin / NCR13_PFV1; Cs350; 4 d; SHAM 60 µg ml–1; microscopy
# Protocol: Synergy between NCR13_PFV1 and the widely used QoI foliar fungicides, azoxystrobin (Sigma-Aldrich, Cat No: 31697), trifloxystrobin (Sigma-Aldrich, Cat No: 46447), and pyraclostrobin (Sigma-Aldrich, Cat No: 33696), were evaluated using checkerboard assays. This assay was performed in a 96-well plate and the preparation of conidial suspension, peptide dilutions, and fungicide dilutions were similar to the in vitro antifungal activity assay described above. The presence of an alternative respiration pathway allows some fungi including C. sojina to germinate even in the presence of a high dose of QoI fungicides in vitro ([Ziogas et al., 1997]; [Zhang et al., 2012]). Therefore, to prevent alternative respiration in C. sojina, salicylhydroxamic acid (SHAM) was added in each reaction at the final concentration of 60 µg ml^–1 ([Zhang et al., 2012]). The conidia, peptide, fungicide, and SHAM were added in a 96-well plate at the v/v ratio of 4:1:1:2 (50 µl:12.5 µl:12.5 µl:25 µl) in the final reaction volume of 100 µl, and the plate was incubated at room temperature for 96 h (4 d). After 96 h, MIC values of the peptide–fungicide combination, peptide alone, and fungicide alone were calculated based on microscopy as well as the resazurin cell viability assay. The fractional inhibitory concentration (FIC) index was calculated using the formula FIC = (MICA+B/MICA) + (MICB+A/MICB), where MICA and MICB are the MIC for peptide (A) alone and fungicide (B) alone, respectively, MICA+B is the MIC for peptide in combination with fungicide (A+B), and MICB+A is the MIC for fungicide in combination with peptide (B+A). The FIC index was interpreted as: synergistic, ≤0.5; additive, >0.5–1.0; indifferent, >1 to <4.0; or antagonistic, ≥4.0.
# C. sojina rRNA = experiment: Electrophoretic mobility shift assay (EMSA); format: binding, Cercospora sojina; conditions: ~200 ng C. sojina RNA, 10 mM Tris–HCl pH 8.0, 1 mM EDTA, 1 h, room temperature
# Protocol: To determine the RNA binding ability of NCR13_PFV1, EMSA was performed as described in [Godwin et al. (2024)]. Briefly, total RNA was extracted from C. sojina Cs350 grown in SFM using the ZymoBIOMICS DNA/RNA Miniprep Kit (Zymo Research). Approximately 200 ng of the fungal RNA was mixed with different concentrations of NCR13_PFV1 in 20 μl of binding buffer (10 mM Tris–HCl, pH 8.0, 1 mM EDTA), incubated at room temperature for 1 h, and run through gel electrophoresis.
# [4] = Peroxidase assay (TMB substrate); format: biochemical; conditions: heme 5 µM, peptide 5 µM, absorption at 370 nm and 652 nm
# Protocol: A Pierce TMB substrate kit (Thermo Scientific) was used to measure the peroxidase activity of heme. In a transparent 96-well plate, 50 µl of TMB substrate and 50 µl of […] were added followed by addition of heme (5 µM) or peptides plus heme (5 µM each). The reaction progression was measured in the Tecan plate reader, by recording UV-vis absorption values at 370 nm and 652 nm for every minute up to 1 h.
# [5] = tested on: C. sojina QoI fungicide-sensitive isolate Cs320; experiment: microbe, parasite or virus in culture; format: cell-based, Cercospora sojina; conditions: SFM, ~10^5 conidia ml−1, room temperature, 48 h; resazurin cell viability assay and microscopy
# Protocol: as §1
# B. cinerea = conditions: ref Godwin et al., 2024; cited from earlier work
# Description: The cysteine-rich defensins are the best characterized class of plant AFPs for their antifungal activity and multi-faceted MoAs. Many fungal pathogens internalize defensins and defensin-derived peptides in vitro, making them promising candidates for development as bio-fungicides to protect crops. For example, a well-characterized plant defensin MtDef4 and the 17 amino acid γ-core peptide GMA4CG_V6 peptide derived from this defensin are internalized by the necrotrophic pathogen Botrytis cinerea in vitro and robustly reduce gray mold symptoms when sprayed on tomato plants ([Tetorya et al., 2023] ...
# [6] = tested on: azoxystrobin-resistant C. sojina Cs350 conidia; experiment: Cell death detection assay (propidium iodide, confocal microscopy); format: cell-based, Cercospora sojina; conditions: NCR13_PFV1 1.5 μM alone; within 1 h; PI staining; n=3
# Protocol: The fungicidal activity of azoxystrobin and peptide NCR13_PFV1 in azoxystrobin-resistant C. sojina Cs350 was analyzed by visualizing the influx of a cell death indicator dye propidium iodide (PI) using time-lapse confocal microscopy. The C. sojina conidia were treated with various concentrations of azoxystrobin, NCR13_PFV1, azoxystrobin plus NCR13_PFV1, or water and 0.5 μg ml^–1 PI, and were observed under confocal microscopy at an excitation and emission wavelength of 500 nm and 545–690 nm, respectively. Z-stacks at each time point were acquired using a ×63 water immersion objective lens (HC PL Apochromat CS2). For each sample, the number of live and dead cells after 1 h of peptide, fungicide, or combination treatment was determined.
sequence,measurement,setting,value
"TKPCQSDKDCKKFACRKPKVPKCINGFCKCVR (disulfide (positions not given here)) [NCR13_PFV1, chickpea nodule-specific cysteine-rich 32 amino acid peptide, disulfide cross-linking variant 1, expressed in Pichia pastoris]",heme binding (colour change of heme from brown to reddish-brown),[1],no such color change
same,MIC against fungicide-sensitive and -resistant isolates of C. sojina,[2],0.75 to 1.5 µM
same,Combination MIC,[3],0.75 µM
same,concentration from which binding to rRNA was observed,C. sojina rRNA,6 µM
same,peroxidase activity of heme and FeSO4 in the presence of peptide,[4],not reduced or stopped
same,"MIC (μM) against C. sojina isolates, Fungicide sensitive, Cs320",[5],0.75 µM
same,fold more potent antifungal activity than NCR13_PFV2 against B. cinerea,B. cinerea,2 fold
same,cell death,[6],57%
